Measured values taken from patent US11078262B2, “High viscosity macromolecular compositions for treating ocular conditions” (ALLERGAN, INC., priority 2007, dated 2021).

Tested on: macula edema with central retinal vein occlusion and/or branch retinal vein occlusion
Test: Treatment of macular edema with intravitreal MAAC composition (ETDRS visual acuity)
Assay type: in vivo, human
Settings: patient; 1 mg intravitreal every 4 months; twelve months after the first injection
Experimental: An obese patient with symptoms of diabetes presents with vision loss due to macula edema with central retinal vein occlusion and/or branch retinal vein occlusion. They receive intravitreal injection of 1 mg of a high viscosity MAAC (polymeric hyaluronate based) solution containing COMPOUND D, such as the Example 13 formulation. Equivalent injections are made every 4 months.

With “siRNA Z (chain 1 CUGAGUUUAAAAGGCACCCTT; chain 2 TTGACUCAAAUUUUCCGUGGG; chemically modified, pattern not given here; one strand is listed 3' to 5') [COMPOUND D]” as the substance, how does the “improved best corrected visual acuity from baseline (ETDRS chart)” value read?
Its value is “fifteen”.
